According to US20180280340A1, “METHOD OF TREATING AND PREVENTING INFECTIONS” (priority 2017, published 2018):

How the values were obtained:
G. vaginalis [1] = assay: bacterial cells viability under sub-MIC BPO treatment; assay type: cell-based, Gardnerella vaginalis; settings: highest sub-MIC concentration of 250 μg/mL
G. vaginalis [2] = assay: broth microdilution assay to determine MIC and sub-MICs of BPO; assay type: cell-based; settings: Gardnerella vaginalis, DMSO solution of BPO, read-out: concentration required to completely inhibit the growth of G. vaginalis (MIC)
From the text: Experimental Details: At a first step of the experiment, a broth microdilution assay was used to determine MIC and sub-MICs of BPO against G. vaginalis, a leading microorganism responsible for Bacterial Vaginosis. […] Note that in this test, the prototype of the vaginal gel was not used, but a DMSO solution of PBO (solution required for 96-well microplate) was used. Consequently, the inhibitory concentration for G. vaginalis found in this test cannot be compared with the inhibitory concentrations for BPO-gel as found in the previous experiments (Xu et al., 2013).

G. vaginalis biofilm = assay: biofilm production inhibition, colorimetric biofilm staining; assay type: cell-based, Gardnerella vaginalis
Description: As a second step, the concentrations, which inhibited biofilm production, were determined. Several concentrations of BPO were tested: 0, 31.25, 62.5, 125, and 250 μg/mL. A colorimetric method was used for biofilm staining and to determine the biofilm integrity percent after the treatment. Note that in this test, the prototype of the vaginal gel was not used, but a DMSO solution of PBO (solution required for 96-well microplate) was used. Consequently, the inhibitory concentration for G. vaginalis found in this test cannot be compared with the inhibitory concentrations for BPO-gel as found in the previous experiments (Xu et al., 2013).

MIC (G. vaginalis [2]): > 250 µg/mL
SMILES: O=C(OOC(=O)c1ccccc1)c1ccccc1 [BPO, Benzoyl peroxide]
bacterial cells viability (G. vaginalis [1]): not influenced
biofilm prevention (G. vaginalis biofilm; 125 μg/mL BPO): more than 40%
inhibition at 250 µg/mL (G. vaginalis biofilm; Gardnerella vaginalis, 250 μg/mL BPO (sub-MIC), compared with the control, read-out: biofilm formation inhibited): ~80%
biofilm integrity (G. vaginalis biofilm; around 250 μg/mL BPO): 20%
